Values quoted from earlier work as cited in patent US7060729B2, “Composition and method for treating skin” (priority 2002, dated 2006).
Like-named read-outs stand apart in the source and are kept apart here.

Key:
[1] = tested on: H. pylori; conditions: Mayr-Kanhauser 2001
[2] = in vivo
[3] = topical application
[4] = as stated in US 5,972,993

Row | SMILES | eliminating H. pylori [1] | erythema, dryness, and burning associated with rosacea [2] | physicians' rating of global improvement, azelaic acid versus metronidazole [2] | reducing the number of inflammatory lesions and associated signs and symptoms of rosacea [2] | telangiectasia [2] | inflammatory papule lesions and erythema [3] | pustules caused by rosacea [3] | telangiectasia [3] | effect against skin redness, telangiectasia or flushing [4] | effect on papules and pustules of rosacea [4]
1 | CC[C@H]1OC(=O)[C@H](C)[C@@H](O[C@H]2C[C@@](C)(OC)[C@@H](O)[C@H](C)O2)[C@H](C)[C@@H](O[C@@H]2O[C@H](C)C[C@H](N(C)C)[C@H]2O)[C@](C)(OC)C[C@@H](C)C(=O)[C@H](C)[C@@H](O)[C@]1(C)O [clarithromycin] | effective |  |  |  |  |  |  |  |  | 
2 | O=C(O)CCCCCCCC(=O)O [azelaic acid, 1,7-heptanedicarboxylic acid] |  | effective | more favorably | equally effective | failed to effect | significantly reduce | not effective | did not produce any major improvement |  | 
3 | Cc1ncc([N+](=O)[O-])n1CCO [metronidazole, 2-methyl-5-nitro-1H-imidazole-1-ethanol] | effective | effective |  | equally effective | failed to effect |  |  |  | ineffective | have an effect
